Publication PMC4898786 (Nature, 2016)

Legend:
[1] = target: ts3 SERT (Y110A, I291A, T439S) (Homo sapiens, UniProt P31645, C554A/C580A/C622A/I291A/T439S/Y110A); assay: [14C]5-HT uptake in transfected HEK293 cells, Michaelis-Menten; format: cell-based
ts2 SERT (I291A, T439S) = ts2 SERT (I291A, T439S) (Homo sapiens, UniProt P31645, C554A/C580A/C622A/I291A/T439S)

Compound: NCCc1c[nH]c2ccc(O)cc12 [serotonin, 5-hydroxytryptamine]
- serotonin transport activity [1]: No detectable transport activity
- Vmax of serotonin transport (ts2 SERT (I291A, T439S)): 21 ± 5 pmol/min
- Km (ts2 SERT (I291A, T439S); read-out: KM of serotonin transport): 4.5 ± 0.6 µM
